Laboratory results reported in patent US20230123334A1, “AMINO LIPID COMPOUND, PREPARATION METHOD THEREFOR, AND APPLICATION THEREOF” (SHENZHEN SHENXIN BIOTECHNOLOGY CO., LTD., priority 2020, published 2023).

Key:
[1] = test system: HEK293 cells; test: Preliminary screening as DNA vectors, GFP transfection of HEK293 cells; type: cell-based; conditions: HEK293 cells; lipid/DOPE liposome with 75 ng plasmid DNA (psin-EGFP-IRES-Puro); number of cells expressing GFP divided by total number of nuclei (Hoechst)
Outline: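 Lipid + DOPE liposomes (NaOAc, pH 5.6) complexed w/ 75 ng psin-EGFP-IRES-Puro, 30 min RT; added to 3-5×10^4 HEK293/well, 37° C. Hoechst 0.2 μg/mL at 20-24 h, imaged after further 20-24 h. Efficiency = GFP+ cells / total nuclei.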

[2] = test system: HEK293 cells; test: Preliminary screening as mRNA vectors, EGFP mRNA transfection of HEK293 cells; type: cell-based; conditions: HEK293 cells, 96-well plates, EGFP mRNA 50 ng per well; percentage of GFP fluorescent cells relative to total number of cells (Hoechst)
Outline: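 Each well of HEK293 cells received 50 ng of EGFP mRNA. Efficiency was expressed as percent GFP-expressing cells over Hoechst-defined total cell number.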

Row | Structure (SMILES) | Absolute DNA transfection efficiency in HEK293 cells [1] | Absolute mRNA transfection efficiency in HEK293 cells [2]
1 | CCCCCCCCCNc1nc(NCCCCCCCCC)nc(NCCCN2CCOCC2)n1 [Compound N9N9D8] | 0.0% | 0.6%
2 | CCCCCCCCCNc1nc(NCCCCCCCCC)nc(NCCCN2CCN(C)CC2)n1 [Compound N9N9D9] | 0.0% | 0.2%
3 | CCCCCCCCCNc1nc(NCCCCCCCCC)nc(NCC2CCN(C)CC2)n1 [Compound N9N9D10] | 0.0% | 0.8%
4 | CCCCCCCCCCCNc1nc(NCCCCCCCCC)nc(NCCN(C)C)n1 [Compound N9N11D1] | 0.0% | 2.2%
5 | CCCCCCCCCCCNc1nc(NCCCCCCCCC)nc(NCCN2CCOCC2)n1 [Compound N9N11D2] | 0.0% | 0.3%
6 | CCCCCCCCCCCNc1nc(NCCCCCCCCC)nc(NCCN2CCCC2)n1 [Compound N9N11D3] | 0.0% | 1.8%
7 | CCCCCCCCCCCNc1nc(NCCCCCCCCC)nc(NCCN2CCCCC2)n1 [Compound N9N11D4] | 0.0% | 0.0%
8 | CCCCCCCCCCCNc1nc(NCCCCCCCCC)nc(NCCN2CCN(C)CC2)n1 [Compound N9N11D5] | 0.0% | 1.1%
9 | CCCCCCCCCCCNc1nc(NCCCCCCCCC)nc(NCCCN(C)C)n1 [Compound N9N11D6] | 0.0% | 0.5%
10 | CCCCCCCCCCCNc1nc(NCCCCCCCCC)nc(NCCN(CC)CC)n1 [Compound N9N11D7] | 0.0% | 0.8%
11 | CCCCCCCCCCCNc1nc(NCCCCCCCCC)nc(NCCCN2CCOCC2)n1 [Compound N9N11D8] | 0.0% | 0.4%
12 | CCCCCCCCCCCNc1nc(NCCCCCCCCC)nc(NCCCN2CCN(C)CC2)n1 [Compound N9N11D9] | 0.0% | 0.7%
13 | CCCCCCCCCCCNc1nc(NCCCCCCCCC)nc(NCC2CCN(C)CC2)n1 [Compound N9N11D10] | 0.0% | 0.0%
14 | CCCCCCCCCCCCNc1nc(NCCCCCCCCC)nc(NCCN(C)C)n1 [Compound N9N12D1] | 0.0% | 0.5%
15 | CCCCCCCCCCCCNc1nc(NCCCCCCCCC)nc(NCCN2CCOCC2)n1 [Compound N9N12D2] | 0.0% | 0.8%
16 | CCCCCCCCCCCCNc1nc(NCCCCCCCCC)nc(NCCN2CCCC2)n1 [Compound N9N12D3] | 0.6% | 4.3%
17 | CCCCCCCCCCCCNc1nc(NCCCCCCCCC)nc(NCCN2CCCCC2)n1 [Compound N9N12D4] | 0.0% | 2.4%
18 | CCCCCCCCCCCCNc1nc(NCCCCCCCCC)nc(NCCN2CCN(C)CC2)n1 [Compound N9N12D5] | 0.0% | 3.8%
19 | CCCCCCCCCCCCNc1nc(NCCCCCCCCC)nc(NCCCN(C)C)n1 [Compound N9N12D6] | 0.0% | 0.2%
20 | CCCCCCCCCCCCNc1nc(NCCCCCCCCC)nc(NCCN(CC)CC)n1 [Compound N9N12D7] | 0.0% | 0.0%
21 | CCCCCCCCCCCCNc1nc(NCCCCCCCCC)nc(NCCCN2CCOCC2)n1 [Compound N9N12D8] | 0.0% | 0.0%
22 | CCCCCCCCCCCCNc1nc(NCCCCCCCCC)nc(NCCCN2CCN(C)CC2)n1 [Compound N9N12D9] | 0.0% | 0.1%
23 | CCCCCCCCCCCCNc1nc(NCCCCCCCCC)nc(NCC2CCN(C)CC2)n1 [Compound N9N12D10] | 0.0% | 0.4%
24 | CCCCCCCCCCCCCNc1nc(NCCCCCCCCC)nc(NCCN(C)C)n1 [Compound N9N13D1] | 0.4% | 2.2%
25 | CCCCCCCCCCCCCNc1nc(NCCCCCCCCC)nc(NCCN2CCOCC2)n1 [Compound N9N13D2] | 0.0% | 0.6%

Row | Structure (SMILES) | Absolute DNA transfection efficiency in HEK293 cells [1] | Absolute mRNA transfection efficiency in HEK293 cells [2]
26 | CCCCCCCCCCCCCNc1nc(NCCCCCCCCC)nc(NCCN2CCCC2)n1 [Compound N9N13D3] | 1.0% | 4.6%
27 | CCCCCCCCCCCCCNc1nc(NCCCCCCCCC)nc(NCCN2CCCCC2)n1 [Compound N9N13D4] | 0.0% | 0.5%
28 | CCCCCCCCCCCCCNc1nc(NCCCCCCCCC)nc(NCCN2CCN(C)CC2)n1 [Compound N9N13D5] | 0.3% | 0.2%
29 | CCCCCCCCCCCCCNc1nc(NCCCCCCCCC)nc(NCCCN(C)C)n1 [Compound N9N13D6] | 0.0% | 0.4%
30 | CCCCCCCCCCCCCNc1nc(NCCCCCCCCC)nc(NCCN(CC)CC)n1 [Compound N9N13D7] | 0.0% | 0.3%
31 | CCCCCCCCCCCCCNc1nc(NCCCCCCCCC)nc(NCCCN2CCOCC2)n1 [Compound N9N13D8] | 0.0% | 0.0%
32 | CCCCCCCCCCCCCNc1nc(NCCCCCCCCC)nc(NCCCN2CCN(C)CC2)n1 [Compound N9N13D9] | 0.0% | 2.5%
33 | CCCCCCCCCCCCCNc1nc(NCCCCCCCCC)nc(NCC2CCN(C)CC2)n1 [Compound N9N13D10] | 0.3% | 2.8%
34 | CCCCCCCCCCCCCCCNc1nc(NCCCCCCCCC)nc(NCCN(C)C)n1 [Compound N9N15D1] | 0.5% | 2.2%
35 | CCCCCCCCCCCCCCCNc1nc(NCCCCCCCCC)nc(NCCN2CCOCC2)n1 [Compound N9N15D2] | 0.0% | 0.2%
36 | CCCCCCCCCCCCCCCNc1nc(NCCCCCCCCC)nc(NCCN2CCCC2)n1 [Compound N9N15D3] | 0.5% | 4.7%
37 | CCCCCCCCCCCCCCCNc1nc(NCCCCCCCCC)nc(NCCN2CCCCC2)n1 [Compound N9N15D4] | 0.0% | 0.6%
38 | CCCCCCCCCCCCCCCNc1nc(NCCCCCCCCC)nc(NCCN2CCN(C)CC2)n1 [Compound N9N15D5] | 0.2% | 1.8%
39 | CCCCCCCCCCCCCCCNc1nc(NCCCCCCCCC)nc(NCCCN(C)C)n1 [Compound N9N15D6] | 0.0% | 1.7%
40 | CCCCCCCCCCCCCCCNc1nc(NCCCCCCCCC)nc(NCCN(CC)CC)n1 [Compound N9N15D7] | 0.0% | 0.8%
41 | CCCCCCCCCCCCCCCNc1nc(NCCCCCCCCC)nc(NCCCN2CCOCC2)n1 [Compound N9N15D8] | 0.2% | 1.4%
42 | CCCCCCCCCCCCCCCNc1nc(NCCCCCCCCC)nc(NCCCN2CCN(C)CC2)n1 [Compound N9N15D9] | 0.9% | 1.1%
43 | CCCCCCCCCCCCCCCNc1nc(NCCCCCCCCC)nc(NCC2CCN(C)CC2)n1 [Compound N9N15D10] | 0.0% | 1.7%
44 | CCCCCCCCCCCCCCCCNc1nc(NCCCCCCCCC)nc(NCCN(C)C)n1 [Compound N9N16D1] | 2.1% | 1.5%
45 | CCCCCCCCCCCCCCCCNc1nc(NCCCCCCCCC)nc(NCCN2CCOCC2)n1 [Compound N9N16D2] | 0.0% | 0.7%
46 | CCCCCCCCCCCCCCCCNc1nc(NCCCCCCCCC)nc(NCCN2CCCC2)n1 [Compound N9N16D3] | 2.2% | 4.3%
47 | CCCCCCCCCCCCCCCCNc1nc(NCCCCCCCCC)nc(NCCN2CCCCC2)n1 [Compound N9N16D4] | 0.8% | 4.5%
48 | CCCCCCCCCCCCCCCCNc1nc(NCCCCCCCCC)nc(NCCN2CCN(C)CC2)n1 [Compound N9N16D5] | 0.0% | 0.0%
49 | CCCCCCCCCCCCCCCCNc1nc(NCCCCCCCCC)nc(NCCCN(C)C)n1 [Compound N9N16D6] | 2.2% | 6.2%
